According to BindingDB's records for doi:10.1016/j.bmcl.2009.07.083 (Bristol-Myers Squibb, 2009):
pIC50: −log10 of the molar value.

Molecular target: Potassium voltage-gated channel subfamily A member 5 (Homo sapiens, UniProt P22460)
Assay: Inhibition of human Kv1.5 channel expressed in mouse L929 cells

Potassium voltage-gated channel subfamily A member 5, sequence (P22460 whole entry): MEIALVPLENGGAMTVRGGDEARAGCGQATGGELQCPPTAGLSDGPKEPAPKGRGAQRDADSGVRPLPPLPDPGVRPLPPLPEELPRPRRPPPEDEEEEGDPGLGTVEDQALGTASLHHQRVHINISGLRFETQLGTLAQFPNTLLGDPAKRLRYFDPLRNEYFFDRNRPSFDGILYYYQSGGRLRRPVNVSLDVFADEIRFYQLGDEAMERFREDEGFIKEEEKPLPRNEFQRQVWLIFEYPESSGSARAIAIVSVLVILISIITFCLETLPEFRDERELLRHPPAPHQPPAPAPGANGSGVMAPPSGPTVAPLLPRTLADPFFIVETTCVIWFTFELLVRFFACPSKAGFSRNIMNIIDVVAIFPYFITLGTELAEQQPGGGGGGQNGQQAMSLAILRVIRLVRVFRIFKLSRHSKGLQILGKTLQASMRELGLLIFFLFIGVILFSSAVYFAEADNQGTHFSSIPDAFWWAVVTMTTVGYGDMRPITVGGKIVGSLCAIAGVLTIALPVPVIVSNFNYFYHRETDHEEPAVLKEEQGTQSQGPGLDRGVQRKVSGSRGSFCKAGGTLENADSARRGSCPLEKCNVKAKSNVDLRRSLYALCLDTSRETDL

Compound	pIC50
CC1=Nc2ccnn2C(c2ccc(Cl)c(Cl)c2)C1c1nc2cc(S(=O)(=O)Nc3ccccc3)ccc2n1C (centres undefined) [2-(7-(3,4-dichlorophenyl)-5-methyl-4,7-dihydropyrazolo[1,5-a]pyrimidin-6-yl)-1-methyl-N-phenyl-1H-benzo[d]imidazole-5-sulfonamide]	< 6.00
CC1=Nc2ccnn2C(c2ccc(Cl)c(Cl)c2)C1c1nnc(-c2ccccc2)o1 (centres undefined) [2-(7-(3,4-dichlorophenyl)-5-methyl-4,7-dihydropyrazolo[1,5-a]pyrimidin-6-yl)-5-phenyl-1,3,4-oxadiazole]	< 6.00
CC1=Nc2ccnn2C(c2ccc(Cl)c(Cl)c2)C1c1ncc(-c2ccccc2)o1 (centres undefined) [2-(7-(3,4-dichlorophenyl)-5-methyl-4,7-dihydropyrazolo[1,5-a]pyrimidin-6-yl)-5-phenyloxazole]	< 6.00
CCCCc1nnc(C2C(C)=Nc3ccnn3C2c2ccc(Cl)c(Cl)c2)o1 (centres undefined) [2-butyl-5-(7-(3,4-dichlorophenyl)-5-methyl-4,7-dihydropyrazolo[1,5-a]pyrimidin-6-yl)-1,3,4-oxadiazole]	< 6.00
CC1=Nc2ccnn2C(c2ccc(Cl)c(Cl)c2)C1c1nc2c(C)cccc2[nH]1 (centres undefined) [7-(3,4-dichlorophenyl)-5-methyl-6-(7-methyl-1H-benzo[d]imidazol-2-yl)-4,7-dihydropyrazolo[1,5-a]pyrimidine]	6.82
CC1=Nc2ccnn2C(c2ccc(Cl)c(Cl)c2)C1c1nc2cc(S(C)(=O)=O)ccc2n1C (centres undefined) [7-(3,4-dichlorophenyl)-5-methyl-6-(1-methyl-5-(methylsulfonyl)-1H-benzo[d]imidazol-2-yl)-4,7-dihydropyrazolo[1,5-a]pyrimidine]	< 6.00
CC(=O)Nc1ccc2c(c1)nc(C1C(C)=Nc3ccnn3C1c1ccc(Cl)c(Cl)c1)n2C (centres undefined) [N-(2-(7-(3,4-dichlorophenyl)-5-methyl-4,7-dihydropyrazolo[1,5-a]pyrimidin-6-yl)-1-methyl-1H-benzo[d]imidazol-5-yl)acetamide]	< 6.00
CC1=Nc2ccnn2C(c2ccc(Cl)c(Cl)c2)C1c1nc2cccc(F)c2n1C (centres undefined) [7-(3,4-dichlorophenyl)-6-(7-fluoro-1-methyl-1H-benzo[d]imidazol-2-yl)-5-methyl-4,7-dihydropyrazolo[1,5-a]pyrimidine]	6.82
CC1=Nc2ccnn2C(c2ccc(Cl)c(Cl)c2)C1c1nc2cc(C)ccc2n1C (centres undefined) [7-(3,4-dichlorophenyl)-6-(1,5-dimethyl-1H-benzo[d]imidazol-2-yl)-5-methyl-4,7-dihydropyrazolo[1,5-a]pyrimidine]	6.70
